Experimental data as given in patent US7759373B2, “Large conductance calcium-activated K channel opener” (Mitsubishi Tanabe Pharma Corporation, priority 2001, dated 2010).

Key:
[1] = test system: isolated rabbit urinary bladder; assay: Relaxation effect on potassium-induced contraction of isolated rabbit urinary bladder; format: cell-based; conditions: Oryctolagus cuniculus; 50% relaxation concentration; high-K+ (30 mM) pre-contracted rabbit bladder strips; relaxation as percentage of the maximum produced by 0.1 mM papaverine; read-out: EC50 value range
Outline: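 Mucosa-free longitudinal bladder strips from male NZW rabbits, held at 37 °C in Krebs solution gassed with 95% O2/5% CO2, were precontracted with 30 mM K+. Compounds were added cumulatively (10^−8–10^−4 M), with isometric relaxation expressed relative to 0.1 mM papaverine maximum. EC50 was derived and reported as rank ranges.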

[2] = test system: rhythmic bladder contractions induced by substance P; assay: Inhibitory effect on the rhythmic bladder contractions induced by substance P in anesthetized rats; format: in vivo, rat; conditions: time during which frequency of rhythmic contraction was completely inhibited, 0.25 mg/kg of the compound, substance P infusion
Outline: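 Value is duration (min) of complete inhibition of bladder contractions, ranked A/B/C at 20 and 10 min cut-offs. Intravenous dosing (0.5% Tween 80 saline) in female SD rats under urethane, bladder saline-filled and contractions maintained by substance P infusion, 0.33 μg/kg/min.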

Compound	EC50 [1]	melting point	100% inhibition time range [2]
CCCc1nc(-c2ccc(Cl)cc2)[nH]c1-c1ccccc1 [Preparation example 60]	1000 to 3000 nM	147 to 149 °C	–
CCOC(=O)c1sccc1-c1nc(CC)c(-c2cccnc2)[nH]1 [Preparation example 10]	1000 to 3000 nM	127 to 129 °C	–
CCc1nc(-c2ccc(Cl)cc2)[nH]c1-c1ccccc1 [Preparation example 59]	1000 to 3000 nM	174 to 176 °C	B (A≧20>B≧10>C (minute))
COCc1[nH]c(-c2ccc(Cl)s2)nc1-c1cccnc1.Cl.Cl [Preparation example 120, 2-(5-chlorothiophen-2-yl)-5-methoxymethyl-4-(3-pyridyl) imidazole dihydrochloride]	≤ 500 nM	245 to 248 °C (dec.)	C (A≧20>B≧10>C (minute))
CCc1nc(-c2ccc(Cl)s2)oc1-c1cccnc1.Cl [Preparation example 63, 2-(5-chlorothiophen-2-yl)-4-ethyl-5-(3-pyridyl)oxazole hydrochloride]	–	201 to 204 °C	C (A≧20>B≧10>C (minute))
CSCc1nc(-c2ccc(F)cc2)[nH]c1-c1cccnc1 [Preparation example 133]	–	172 to 174 °C	C (A≧20>B≧10>C (minute))
CCCc1nc(-c2ccc(F)cc2)[nH]c1-c1ccc(C#N)cc1 [Preparation example 95]	1000 to 3000 nM	240 to 242 °C	–

Continued, in another order:

EC50 [1]	melting point	Compound	100% inhibition time range [2]
–	213 to 214 °C	COC(=O)c1nc(-c2ccc(F)cc2)oc1-c1ccsc1 [Preparation Example 622]	B (A≧20>B≧10>C (minute))
1000 to 3000 nM	169 to 170 °C	CCc1nc(-c2ccc(F)cc2)[nH]c1-c1ccccc1 [Preparation example 61]	A (A≧20>B≧10>C (minute))
1000 to 3000 nM	183 to 184 °C	CCONC(=O)Cc1nc(-c2ccc(F)cc2)oc1-c1ccsc1 [Preparation Example 377]	C (A≧20>B≧10>C (minute))
–	176 to 178 °C	N#CCCc1nc(-c2ccc(F)cc2)[nH]c1-c1ccccc1 [Preparation example 62]	C (A≧20>B≧10>C (minute))
–	120 to 122 °C	CCOC(=O)Cc1nc(-c2ccc(F)cc2)oc1I [Preparation Example 295]	B (A≧20>B≧10>C (minute))
–	173 to 174.5 °C	C[S+]([O-])Cc1nc(-c2ccc(F)cc2)oc1-c1ccsc1 (stereo not drawn) [Preparation Example 624]	C (A≧20>B≧10>C (minute))
1000 to 3000 nM	208 to 210 °C	CS(=O)(=O)Cc1nc(-c2ccc(F)cc2)oc1-c1ccsc1 [Preparation Example 623]	C (A≧20>B≧10>C (minute))
